Results reported in the METLIN SMRT retention time set (Domingo-Almenara et al. 2019).

experiment: gradient 5% acetonitrile 3 min, to 50% in 2 min, to 85% in 15 min, held 3 min, 100 µL/min; settings: column: Zorbax Extend-C18 2.1 x 50 mm; eluents: water / acetonitrile, 0.1% formic acid
Method in brief: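 In both positive and negative ionization mode, a quadrupole time-of-flight mass spectrometer coupled to HPLC analyzed pure standards run in mixtures of ~100 molecules. The Zorbax Extend-C18 column (2.1 × 50 mm, 1.8 μm) was operated at 100 μL/min with water and acetonitrile, each containing 0.1% formic acid. The dead volume was 40 μL and the dwell volume 900 μL. Retention time came from adduct peaks that were computationally picked and individually inspected by hand.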

RP-LC retention time [s] | SMILES
662 | O=C(Nc1nc(-c2cccnc2)cs1)C(c1ccccc1)n1cccc1 (stereo not drawn)
851 | O=S(=O)(c1ccc2nncn2c1)N(Cc1cccc(F)c1)c1cccc(F)c1
1070 | CN(C)c1cccc(-c2nn3c(-c4ccc5ccccc5n4)nnc3s2)c1
918 | CCOC(=O)c1ccc(Nc2c(-c3ccc(C)cc3)nc3cnccn23)cc1
551 | CN(C)CCNC(=O)C1CCc2sc(C(=O)N3CCOCC3)cc2C1 (stereo not drawn)
1190 | CCCCCNC(=O)c1sccc1S(=O)(=O)N(C)c1ccc(OCC)cc1
592 | O=C(CN1CCCC(COCc2ccccc2)C1)NCc1ccc2c(c1)OCO2 (stereo not drawn)
1230 | COc1ccc(NC(=O)Cc2c(C)nn(-c3nc(-c4ccc(Cl)cc4)cs3)c2C)c(OC)c1
839 | Cc1noc(C)c1Cc1ccc(C(=O)N2CCCCCCNC(=O)[C@@H]3CCCC[C@@H]32)o1
650 | CCCNC(=O)C1CCCN(c2ncnc3c2nc2n3CCCCC2)C1 (stereo not drawn)
931 | O=C(c1cccc(F)c1)N1CCN(C(=O)c2nnn3c2COC(c2ccc(Cl)cc2)C3)CC1 (stereo not drawn)
1050 | COc1ccc(-c2noc(C3CC(=O)N(c4ccc(C)c(Cl)c4)C3)n2)cc1 (stereo not drawn)
936 | Cc1cccc(Cn2c(CN3CCC(C(=O)NC4CCCCCCC4)CC3)cc3ccccc32)c1
756 | O=C1NC2(CCN(C(=O)Cc3ccccc3)CC2)Nc2c(Cl)cccc21
720 | Cc1[nH]c(C)c(S(=O)(=O)N2CCC(C(=O)NC3CCCCC3)CC2)c1C(=O)N1CCCCC1
1190 | CCCCCCC(=O)Nc1nc(-c2ccc(C)cc2)cs1
788 | CC1=C(c2ccc(C)c(C)c2)S(=O)(=O)N=C1N1CCCN(C(=O)c2cccnc2)CC1
601 | O=C(CSc1cc(N2CCCC2)ncn1)NCc1cccs1
870 | CCc1cc(C2CCCN2C(=O)c2cnn3c(C(F)(F)F)cc(-c4ccco4)nc23)on1 (stereo not drawn)
830 | Cc1ccc(N2CCN(C(=O)c3cn4cc(Cl)ccc4n3)CC2)cc1
979 | CCOC(=O)c1c(C)oc2nc(C)nc(N3CCN(c4ccc(OC)cc4)CC3)c12

RP-LC retention time [s] | SMILES
697 | CCn1c(=O)n(CC(=O)N2CCN(c3ccccn3)CC2)c(=O)c2cnc(-c3ccccc3)nc21
686 | COC(=O)c1ccc(NC(=O)N2CC(N(C3CCOCC3)S(C)(=O)=O)C2)cc1
875 | CCC(=O)N1CCc2nc(N3CCN(C(=O)CCOC)CC3)sc2C1
662 | CCOC(=O)C1CCN(C(=O)C2CCN(c3nccc(C)n3)CC2)CC1
860 | COc1ccc(/C=C/c2nn3c(-c4cccnc4)nnc3s2)cc1
862 | CC(=O)Nc1ccc(OCCOc2ccc([N+](=O)[O-])cc2)cc1
914 | COc1ccc(-c2nc(-c3cn(Cc4ccc(F)cc4)nn3)no2)cc1OC
852 | Cc1ccc(CC(=O)N2CCC3(CC2)NC(=O)c2cc(C)ccc2N3C)cc1
784 | Cc1ccnc(N2CCC(C(=O)Nc3ccc(Br)cc3)CC2)n1
634 | CCc1nc(N)n(CC(=O)Nc2ccc(F)cc2)c(=O)c1C
574 | CC(=O)N1CCCC1c1nc2ccccc2n1CC(=O)N1CCCC1 (stereo not drawn)
810 | CC1(C)COc2ccc(NC(=O)c3c(F)cccc3Cl)cc2NC1=O
658 | CC(=O)Nc1ccc(NC(=O)C2CC(=O)N(c3ccc4c(c3)CCN4C(=O)C3CC3)C2)cc1 (stereo not drawn)
717 | Cc1c(CNCC2CCCO2)c(C(=O)O)c(C)n1Cc1cccc(Cl)c1 (stereo not drawn)
794 | COc1ccc(-c2noc(Cn3ccn(-c4ccccc4)c(=O)c3=O)n2)cc1
688 | CC(C)c1nncn1C1CCN(S(=O)(=O)Cc2ccccc2F)CC1
619 | Cc1nc2n(c(=O)c1C)CCN2CC(=O)NCc1cccs1
840 | O=C(NCc1cccs1)c1ccc2c(c1)CC(=O)N2Cc1ccc(F)cc1
760 | Cn1nc(C(=O)Nc2ccccc2)c2c1CCN(C(=O)NCc1ccco1)C2
528 | Cn1cc(CN2C[C@@H](COc3cccnc3)[C@H](c3ccccn3)C2)cn1
788 | Cc1ccc(-c2csc(Nc3c(C)n(C)n(-c4ccccc4)c3=O)n2)cc1

RP-LC retention time [s] | SMILES
884 | Cc1ccsc1C(=O)Nc1ccc(-c2nc(Cn3cccn3)c(C)o2)cc1
663 | CCCNC(=O)C1CCN(c2ccc(SCC(=O)NCCc3ccc(Cl)cc3)nn2)CC1
679 | O=C(CCc1nnc2c3cc(-c4ccccc4)nn3ccn12)N1CCN(C(=O)c2ccco2)CC1
573 | O=S(=O)(Cc1cccc(Cl)c1)NCC1CCN(Cc2ccco2)CC1
695 | NS(=O)(=O)c1ccc(CCNC(=O)C(=O)Nc2ccc(Cl)cn2)cc1
755 | Cc1ccc2c(NCc3ccccc3)c(-c3nc(C4CC4)no3)cnc2n1
1170 | O=S(=O)(c1cc(F)cc(F)c1)N1CCC(c2noc(-c3cccc(F)c3)n2)CC1
1030 | CCOC(=O)C1CCCN(c2ccc3nnc(CCc4nc(-c5ccccc5C)no4)n3n2)C1 (stereo not drawn)
576 | CS(=O)(=O)N1CC[C@H]2CN(Cc3cn[nH]c3-c3ccc(F)cc3)C[C@@]2(CF)C1
904 | COc1ccc(-c2nc(C3CC(=O)N(c4ccc(OC)cc4)C3)no2)cc1 (stereo not drawn)
769 | COc1ccc(F)cc1S(=O)(=O)N1C[C@@H](F)C[C@H]1C(=O)N1CCCCC1
1040 | Cc1ccc(Sc2c(-c3ccccc3)nc3ncccn23)cc1
616 | O=C(c1cccnc1)N1CCN(c2cc(-c3cccs3)[nH]n2)CC1
646 | COc1ccc(-c2noc(CCc3nnc4ccc(N5CCN(C6CCCCC6)CC5)nn34)n2)cc1
871 | COc1ccc(Cc2nc3nccc(-c4cccs4)n3n2)cc1
782 | CC(C)(C)c1nnc(NC(=O)C2CC(=O)N(CCc3c[nH]c4ccc(F)cc34)C2)s1 (stereo not drawn)
701 | CCN1C(=O)C2CC3(CCN(C(=O)c4cccs4)CC3)CN2C1=O (stereo not drawn)
752 | Cc1cccc(N(C)C(=O)Cn2c(=O)n(-c3cccc(C)c3)c(=O)c3c2cc(C)n3C)c1
1190 | CCCN1C(=O)COc2ccc(-c3noc(/C=C/c4ccc(OC)cc4)n3)cc21
761 | CCCN(C)C(=O)c1c(C)oc2ccn(Cc3ccc(F)cc3)c(=O)c12
695 | CCOC(=O)CC(NC(=O)CCc1c(C)nc2ncnn2c1C)c1ccc(C)cc1 (stereo not drawn)

RP-LC retention time [s] | SMILES
739 | COc1cccc(CNC(=O)CN2C(=O)NC(c3ccccc3Cl)C3=C2COC3=O)c1OC (stereo not drawn)
1200 | Cc1ccc(Cl)cc1N1CCN(c2ccc3cc(S(=O)(=O)N4CCOCC4)ccc3n2)CC1
901 | CCN1C(=O)CCc2c(C)nc(-c3ccc(OC)cc3)nc21
611 | CCCOc1nc2ccccc2nc1N1CCCC(C(=O)Nc2cc(Cl)ccc2OC)C1 (stereo not drawn)
606 | CCOC(=O)CNC(=O)Nc1ccc(CCc2nc3ccccc3[nH]2)cc1
1320 | O=C(CCC1CCCC1)N1CCC(c2noc(-c3ccc(Cl)cc3)n2)CC1
563 | COc1ccc(Nc2nc(N(C)C)nc3nccnc23)cc1
737 | CCn1c(=O)sc2cc(S(=O)(=O)N3CCC(C(=O)NC4CC4)CC3)ccc21
607 | COc1cc(C2C(C(=O)N3CCOCC3)=C(C)NC3=C2C(=O)CCC3)cc(Br)c1O (stereo not drawn)
861 | COc1ccc(CN2C=C(C(=O)OCc3noc(-c4ccccc4C)n3)C(C)=NS2(=O)=O)cc1
719 | Cc1cc(C)cc(Nc2c(-c3ccc(N4CCOCC4)cc3)nc3ncccn23)c1
906 | CCCNC(=O)C1CCN(c2nc3ccc(-c4ccccc4)nc3s2)CC1
684 | O=C(NCc1cccs1)C1CCCN(c2nnc3c(Cl)cccn23)C1 (stereo not drawn)
653 | CCC(=O)N1CCc2c(C(=O)NC3CC3)cccc21
909 | O=C(Cn1ccc2ccc(N3CCOCC3)nc21)NCc1cccc(Cl)c1
592 | Cc1cc(NCC(O)c2ccc([N+](=O)[O-])cc2)nc(-n2nc(C)cc2C)n1 (stereo not drawn)
582 | COc1ccc(-c2ccc(=O)[nH]n2)cc1OC
971 | O=C1COc2ccccc2N1Cc1nc(-c2ccccc2)no1
599 | COc1ccc(C(=O)Nc2ccc3nc(N4CCN(CCC#N)CC4)cc(C(=O)O)c3c2)cc1
1160 | COC(=O)c1c(C)c(C(=O)C(C)N(C(=O)c2ccccc2Cl)C2CCCCC2)c(C)n1C (stereo not drawn)
584 | Cc1cnc(C(=O)N2CCCC(c3nnc4n3CCN(C(=O)C3CC3)C4)C2)cn1 (stereo not drawn)

SMILES | RP-LC retention time [s]
O=P(Oc1ccccc1)(Oc1ccccc1)c1ccccc1 | 1070
COc1ccc2c(c1)C1(CCN(C(=O)c3ccccc3Br)C1)C(=O)N2 (stereo not drawn) | 750
O=C(NCc1ccco1)c1c(O)c2cccnc2n(Cc2ccccc2)c1=O | 1250
COc1ccc2c(c1)C1(CCN(C(=O)Nc3cccc(F)c3)C1)C(=O)N2C (stereo not drawn) | 811
